Test results reported in US20110245231A1, “ACTIVE SUBSTANCE AND PHARMACEUTICAL COMPOSITION FOR TREATING ALCOHOL DEPENDENCE, AND A METHOD FOR OBTAINING AND THE USE OF SAID ACTIVE SUBSTANCE” (Alla Chem, LLC, priority 2009, published 2011).

System: mice with formed alcohol dependence (male mice of SHK line)
Experiment: Alcohol-deprivation effect (ADE): voluntary consumption of 10% alcohol in a 90-minute test before and after 4-day deprivation
Format: in vivo
Conditions: for Alcohol consumption before deprivation: baseline test before deprivation and dosing; for ADE (ADE index): index >0.5 = alcohol dependence
Method: Alcohol dependence is determined by the increasing of alcohol consumption induced by short-time deprivation of alcohol. The occurrence and the level of this increasing is a criterion for self-control loss during the period of heavy drinking [Maisky A. I., Salimov R. M. Procedural guidelines for investigation of anti-alcohol medications. The guidebook for experimental (preclinical) investigation of novel pharmacological substances. Ed. Harbiev R. U., publ. “Medicine”, Moscow, 2005, p. 342-356].
For overcoming of the possible first-use gustatory rejection of alcohol solution during the first 6 days of the experiment male mice of SHK line were not given water, they had access only to alcohol solution of increasing concentration (3%—on the first and second days, 6%—on the third and fourth days and 10%—on the fifth and sixth days) [Mc Kinzie et al., Alcohol Clin Exp Res. 1998, 22(7):1584-90]. At that, free access to food was provided. During the next 2 months the animals had free access to pure water, food and 10% solution of alcohol.
For quantitative estimation of alcohol motivation the amount of voluntary alcohol (10% solution) consumption during the 90-minute's test after 4-day's alcohol deprivation was compared with the amount of alcohol consumed during the test carried out before 4-day's alcohol deprivation (alcohol-deprivation effect, ADE). ADE index was calculated as a ratio of alcohol consumption after its withdrawal (grams of pure alcohol per kilogram of body mass) to the total alcohol consumption before and after its withdrawal. The existence of alcohol dependence is determined by the value of ADE index exceeding 0.5, a lower meaning of ADE index corresponds to the absence of alcohol dependence.
At the end of 2-month's period of free access to water and alcohol the above estimation of ADE was carried out, and for further experiments the animals with ADE index exceeding 0.5 were selected. These mice, which had practically identical ADE values, were divided into groups of 9-12 animals.
Sodium γ-hydroxybutyrate was used as a reference drug in the experiments with male mice of SHK line.
Peroral administration once a day for 4 days running

[1] = dose 0.5 mg/kg peroral once a day for 4 days during deprivation
[2] = dose 3.0 mg/kg peroral once a day for 4 days during deprivation
[3] = dose 10.0 mg/kg peroral once a day for 4 days during deprivation
[4] = dose 10.0 mg/kg peroral once a day for 4 days
[5] = dose 20.0 mg/kg peroral once a day for 4 days during deprivation
[6] = dose 2.0 mg/kg peroral once a day for 4 days during deprivation
[7] = dose 150 mg/kg peroral once a day for 4 days during deprivation

With `Br.CCSc1nc2ccccc2[nH]1` [1.1, 2-ethylsulfanyl-1H-benzimidazole hydrobromide] the “alcohol-deprivation effect (increasing of alcohol consumption after 4-days' deprivation), observed or not” value (0.5 mg/kg dose) was “observed”, the “post-deprivation increasing of alcohol consumption, observed or not” value (3-20 mg/kg) was “not observed” and the “Alcohol consumption after deprivation” value [1] was 4.36 ± 1.10 g/kg. The “Alcohol consumption before deprivation” value [1] was 1.96 ± 0.75 g/kg, the “ADE (ADE index)” value (dose 0.5 mg/kg peroral once a day for 4 days) was 0.65 ± 0.07 and the “Alcohol consumption after deprivation” value [2] was 2.60 ± 1.10 g/kg. The “Alcohol consumption before deprivation” value [2] was 3.49 ± 0.75 g/kg, the “ADE (ADE index)” value (dose 3.0 mg/kg peroral once a day for 4 days) was 0.46 ± 0.07 and the “Alcohol consumption after deprivation” value [3] was 1.59 ± 1.10 g/kg. The “Alcohol consumption before deprivation” value [3] was 2.79 ± 0.75 g/kg, the “ADE (ADE index)” value [4] was 0.39 ± 0.07 and the “Alcohol consumption after deprivation” value [5] was 1.55 ± 1.10 g/kg. The “Alcohol consumption before deprivation” value [5] was 2.56 ± 0.75 g/kg, the “ADE (ADE index)” value (dose 20.0 mg/kg peroral once a day for 4 days) was 0.31 ± 0.07 and the “dose at which the decrease of alcohol-deprivation effect appears” value (dose-dependent, more noticeable at 20 mg/kg) was 3 mg/kg.

`Cl.c1c(C2CCCCC2)cc2c3c(n4c2c1NCC4)CCCC3` [2.2, 5-cyclohexyl-2,3,7,8,9,10-hexahydro-1H-pyrazino[3,2,1-jk]carbazole hydrochloride] was tested, and the “alcohol-deprivation effect (increasing of alcohol consumption after 4-days' deprivation), observed or not” value (2 and 10 mg/kg doses) was “observed”, the “Alcohol consumption after deprivation” value [6] was 3.42 ± 1.16 g/kg and the “Alcohol consumption before deprivation” value [6] was 2.61 ± 0.79 g/kg. For the same compound, the “ADE (ADE index)” value (dose 2.0 mg/kg peroral once a day for 4 days) was 0.58 ± 0.08, the “Alcohol consumption after deprivation” value [3] was 5.05 ± 1.10 g/kg and the “Alcohol consumption before deprivation” value [3] was 2.61 ± 0.75 g/kg. The “ADE (ADE index)” value [4] was 0.61 ± 0.07 and the “influence on ADE, in words” value (used alone in doses of 2-10 mg/kg) was “does not influence ADE”.

For `O=C([O-])CCCO.[Na+]` [SHB, sodium γ-hydroxybutyrate], the “Alcohol consumption after deprivation” value [7] was 1.49 ± 1.10 g/kg, the “Alcohol consumption before deprivation” value [7] was 2.36 ± 0.75 g/kg and the “ADE (ADE index)” value (dose 150 mg/kg peroral once a day for 4 days) was 0.45 ± 0.07. The “effect on alcohol-deprivation effect, in words” value (reference drug, 150 mg/kg (Table 3)) was “significant decreasing of alcohol-deprivation effect”.
